Results published in US20120171123A1, “USES AND COMPOSITIONS FOR TREATMENT OF RHEUMATOID ARTHRITIS” (priority 2006, published 2012).

System: patients with active rheumatoid arthritis
Experiment: Study A: tender and swollen joint count (TJC28/SJC28)
Assay type: in vivo, human
Conditions: for Change in SJC, mean change from baseline / Change in TJC, mean change from baseline / SJC = 0 / TJC = 0: 12 weeks
Method: Swollen and tender joints are the most characteristic features of RA, as disease severity is directly related to the number of swollen and tender joints. Counting swollen and tender joints is a key component of the clinical assessment of RA. Tender joint count (TJC) is an assessment of 28 or more joints where several different aspects of tenderness are assessed by pressure and joint manipulation on physical examination. Swollen joint count (SJC): an assessment of 28 or more joints where joints are classified as either swollen or not swollen. For TJC and SJC scoring see Fuchs and Pincus, Arthritis Rheum 37:470-475, 1994; Arthritis Rheum 37:463-464, 1994).
The study design included a 12 week open label treatment period followed by a continuation period examining safety and efficacy. […] The main inclusion criteria for the study were the following: males and females ≧18 years; rheumatoid arthritis (RA; defined by ACR criteria) for ≧3 months; unsatisfactory response (or intolerance) to at least one prior DMARD; and patients with active RA (DAS28≧3.2). Baseline demographics and disease severity is shown below in Table 1:
Efficacy of adalimumab treatment was determined by examining signs and symptoms of the patients. Various assays were used to determine efficacy, including ACR response, EULAR response, TJC and SJC count, and DAS28.
The objective of this study was to evaluate the impact of prior biologic therapies, in particular TNF-antagonists etanercept (ETA) and infliximab (INF), on key efficacy parameters of adalimumab therapy in patients with long-standing RA in clinical practice. To evaluate the impact of prior biological therapies, patients with moderate to severe RA enrolled at 450 sites in 11 European countries plus Australia (Study A). Patients with moderate to severe RA and an inadequate response to prior DMARD therapies were enrolled in a 12-week open-label study with an optional extension phase. […] Patients with previous biologic treatment must have received the last administration at least 8 weeks before enrollment Routine safety and efficacy data were collected at weeks 2, 6, and 12, and every 8 weeks in the extension phase. Efficacy parameters included ACR20, ACR50, ACR70, EULAR Response, HAQ, tender and swollen joint count (TJC28/SJC28), and DAS28. […] For this interim analysis, efficacy outcomes were evaluated after 12 weeks of therapy per the number and type of prior biologics used: None, any (ETA, INF, anakinra), ETA only, INF only, or ETA and INF but not anakinra.
Patients with long-standing, moderate to severe RA were enrolled in Study A at 450 sites in 12 different countries. The study design for Study A is outlined in FIG. 21. […] Previous treatment with other biologics was allowed up to 8 weeks before enrollment. Patients met the following inclusion criteria: Age ≧18 years; RA (defined by American College of Rheumatology criteria) for ≧3 months; active, moderate to severe RA (Disease Activity Score (DAS28)≧3.2); unsatisfactory response or intolerance to at least one prior DMARD, including biologics. Efficacy assessments were performed at weeks 0 (baseline), 2, 6, and 12. The key outcomes measured were: change in DAS28; EULAR responses; ACR20, ACR50, ACR70 responses; changes in Tender Joint Count (TJC) and Swollen Joint Count (SJC); and change in Health Assessment Questionnaire (HAQ).

[1] = prior biologic: ETA + INF (n=78)
[2] = Week 12, concomitant LEF only (n=557)
[3] = Week 12, concomitant MTX + LEF (n=123)
[4] = Week 12, concomitant MTX only (n=1561)
[5] = Week 12, concomitant QC/HQC (n=85)
[6] = Week 12, concomitant SSZ only (n=89)
[7] = Wk 12, concomitant MTX Im 15 mg (N=76), no other DMARD
[8] = Wk 12, concomitant MTX Iv 15 mg (N=23), no other DMARD
[9] = Wk 12, concomitant MTX Sc 15 mg (N=37), no other DMARD
[10] = Wk 12, concomitant MTX oral 15 mg (N=405), no other DMARD
[11] = Wk 12, concomitant MTX oral ≦7.5 (N=127), no other DMARD
[12] = Wk 12, concomitant MTX oral ≧20 mg (N=216), no other DMARD
[13] = week 12, prior biologic: ETA + INF

## adalimumab: human anti-TNF mAb (HUMIRA, Abbott Laboratories), described in U.S. Pat. No. 6,090,382 as D2E7
All pts in Study A (n=4241)
  Change in SJC, mean change from baseline: −6
  Change in TJC, mean change from baseline: −8
  SJC = 0: 24%
  TJC = 0: 21%
Prior biologic: Any (n=688)
  Change in SJC, mean change from baseline: −6
  Change in TJC, mean change from baseline: −8
  SJC = 0: 18%
  TJC = 0: 16%
Prior biologic: ETA (n=114)
  Change in SJC, mean change from baseline: −7
  Change in TJC, mean change from baseline: −8
  SJC = 0: 21%
  TJC = 0: 16%
[1]
  Change in SJC, mean change from baseline: −5
  Change in TJC, mean change from baseline: −7
  SJC = 0: 7%
  TJC = 0: 10%
Prior biologic: INF (n=358)
  Change in SJC, mean change from baseline: −6
  Change in TJC, mean change from baseline: −8
  SJC = 0: 22%
  TJC = 0: 17%
Prior biologic: None (n=3553)
  Change in SJC, mean change from baseline: −7
  Change in TJC, mean change from baseline: −8
  SJC = 0: 25%
  TJC = 0: 22%
[2]
  Change in SJC (0-28), mean change from baseline: −6
  Change in TJC (0-28), mean change from baseline: −8
[3]
  Change in SJC (0-28), mean change from baseline: −8
  Change in TJC (0-28), mean change from baseline: −10
Week 12, concomitant MTX + SSZ
  Change in SJC (0-28), mean change from baseline: −7
  Change in TJC (0-28), mean change from baseline: −8
[4]
  Change in SJC (0-28), mean change from baseline: −7
  Change in TJC (0-28), mean change from baseline: −8
[5]
  Change in SJC (0-28), mean change from baseline: −7
  Change in TJC (0-28), mean change from baseline: −9
[6]
  Change in SJC (0-28), mean change from baseline: −6
  Change in TJC (0-28), mean change from baseline: −7
[7]
  Change in SJC (0-28), mean change from baseline: −6
  Change in TJC (0-28), mean change from baseline: −8
[8]
  Change in SJC (0-28), mean change from baseline: −7
  Change in TJC (0-28), mean change from baseline: −11
[9]
  Change in SJC (0-28), mean change from baseline: −7
  Change in TJC (0-28), mean change from baseline: −10
[10]
  Change in SJC (0-28), mean change from baseline: −6
  Change in TJC (0-28), mean change from baseline: −8
[11]
  Change in SJC (0-28), mean change from baseline: −7
  Change in TJC (0-28), mean change from baseline: −8
[12]
  Change in SJC (0-28), mean change from baseline: −7
  Change in TJC (0-28), mean change from baseline: −9
Week 12
  patients achieving SJC=0: 25%
  patients achieving TJC=0: 23%
Week 12, 1 prior biologic
  SJC (0-28) mean change from baseline: −6.4
  TJC (0-28) mean change from baseline: −8.0
Week 12, 2 prior biologics
  SJC (0-28) mean change from baseline: −6.9
  TJC (0-28) mean change from baseline: −8.1
Week 12, 3 prior biologics
  SJC (0-28) mean change from baseline: −6.6
  TJC (0-28) mean change from baseline: −11.3
Week 12, median
  reduction in SJC28: ~70%
  reduction in TJC28: ~77%
Week 12, no prior biologic
  SJC (0-28) mean change from baseline: −6.4
  TJC (0-28) mean change from baseline: −8.1
Week 12, prior etanercept only
  SJC (0-28) mean change from baseline: −6.6
  TJC (0-28) mean change from baseline: −8.4
Week 12, prior infliximab only
  SJC (0-28) mean change from baseline: −6.8
  TJC (0-28) mean change from baseline: −7.8
Week 12, prior biologic: Any
  Median TJC reduction: −8
  Mediant SJC reduction: −6
Week 12, prior biologic: ETA
  Median TJC reduction: −8
  Mediant SJC reduction: −7
[13]
  Median TJC reduction: −7
  Mediant SJC reduction: −5
Week 12, prior biologic: INF
  Median TJC reduction: −8
  Mediant SJC reduction: −6
Week 12, prior biologic: None
  Median TJC reduction: −8
  Mediant SJC reduction: −7
